Laboratory results: patent US20060063791A1, “(Spirocyclylamido)aminothiophene compounds” (priority 2004, published 2006)
Counter-ions that a name gives are not always drawn.

What was measured:
[1] = target: T1, wild-type c-Kit receptor protein endogenously expressed in H526 cells (Homo sapiens, UniProt P10721); assay: Assay for inhibition of c-Kit in intact cells (C-KIT H526 cell assay, ELISA of SCF-stimulated tyrosine phosphorylation); format: cell-based; settings: 3 h compound pre-incubation, SCF stimulation 15 min, read-out: IC50 (concentration of compound that inhibits SCF-induced tyrosine phosphorylation of the c-Kit protein by 50%)
T1 construct: wild-type c-Kit receptor protein that is endogenously expressed in H526 cells; endogenous in cells; host or cells: H526 (ATCC # CRL-5811), human small cell lung cancer
T1 sequence (P10721 26-976): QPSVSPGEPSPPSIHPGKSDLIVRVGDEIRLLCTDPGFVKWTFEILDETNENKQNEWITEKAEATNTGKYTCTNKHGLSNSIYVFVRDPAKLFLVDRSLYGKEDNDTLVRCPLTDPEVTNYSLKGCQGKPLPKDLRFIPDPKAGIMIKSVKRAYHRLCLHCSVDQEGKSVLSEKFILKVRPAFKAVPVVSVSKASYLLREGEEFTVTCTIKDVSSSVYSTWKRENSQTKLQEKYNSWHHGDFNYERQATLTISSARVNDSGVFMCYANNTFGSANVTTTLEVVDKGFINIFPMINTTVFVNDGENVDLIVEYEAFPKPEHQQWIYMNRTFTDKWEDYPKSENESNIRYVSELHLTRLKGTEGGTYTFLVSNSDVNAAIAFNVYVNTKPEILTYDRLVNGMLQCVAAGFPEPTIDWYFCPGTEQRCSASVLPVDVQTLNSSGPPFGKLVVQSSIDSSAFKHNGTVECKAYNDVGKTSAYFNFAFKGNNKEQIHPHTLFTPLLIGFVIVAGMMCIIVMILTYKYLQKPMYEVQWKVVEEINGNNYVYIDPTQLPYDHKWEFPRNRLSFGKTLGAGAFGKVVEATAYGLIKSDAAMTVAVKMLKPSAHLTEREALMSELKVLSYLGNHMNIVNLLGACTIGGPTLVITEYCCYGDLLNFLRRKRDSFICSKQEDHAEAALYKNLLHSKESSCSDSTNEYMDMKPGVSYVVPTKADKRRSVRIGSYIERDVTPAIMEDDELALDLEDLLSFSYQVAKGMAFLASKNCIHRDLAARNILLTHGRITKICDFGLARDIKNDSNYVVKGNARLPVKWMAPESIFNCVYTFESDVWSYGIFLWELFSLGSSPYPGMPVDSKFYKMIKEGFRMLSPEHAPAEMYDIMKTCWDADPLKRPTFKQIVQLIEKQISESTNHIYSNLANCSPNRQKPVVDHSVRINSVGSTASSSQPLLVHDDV
Description: C-KIT H526 Cell Assay Protocol
I. Assay for Inhibition of c-Kit in Intact Cells
The ability of compounds to inhibit the tyrosine kinase activity of c-Kit was determined in a cell-based ELISA assay using the H526 cell line (ATCC # CRL-5811), which was originally derived from a human small cell lung cancer. The assay determines the ability of compounds to block ligand-stimulated tyrosine phosphorylation of the wild-type c-Kit receptor protein that is endogenously expressed in H526 cells. Cells are pre-incubated with compounds at various concentrations prior to addition of stem cell factor (SCF), the ligand for the c-Kit receptor tyrosine kinase. Cell lysates are then prepared and the c-Kit protein is captured onto a c-Kit antibody-coated 96-well ELISA plate. The phosphotyrosine content of the receptor protein is then monitored by quantitation of the degree of binding of an antibody that recognizes only the phosphorylated tyrosine residues within the captured protein. The antibody used has a reporter enzyme (e.g. horseradish peroxidase, HRP) covalently attached, such that binding of antibody to phosphorylated c-Kit can be determined quantitatively by incubation with an appropriate HRP substrate.
Cell Lysis Buffer: • 50 mM Tris-HCl, pH 7.4 • 150 mM NaCl • 10% Glycerol • 1% Triton X-100 • 0.5 mM EDTA • 1 μg/mL leupeptin • 1 μg/mL aprotinin • 1 mM Sodium orthovanadate
Anti c-Kit Antibody: • 0.5 μg/mL anti c-Kit Ab-3 (Lab Vision, catalog #MS289P1) in 50 mM Sodium bicarbonate, pH 9.
ELISA Assay Plates: • ELISA assay plates are prepared by addition of 100 μL of anti c-Kit antibody to each well of a 96-well Microlite-2 plate (Dynex, catalog # 7417), followed by incubation at 37° C. for 2 h. The wells are then washed twice with 300 μL wash buffer.
Plate Wash Buffer: • PBS containing 0.5% Tween-20 (PBST)
Cell Assay Medium: • RPMI with 0.1% BSA
pY20-HRP: • 25 ng/mL pY20-HRP (Calbiochem, catalog # 525320) in PBS, containing 0.5% Tween-20, 5% BSA, 1 mM Sodium orthovanadate
HRP Substrate: • Chemoluminescent detection reagent (Pierce, catalog # 37075)
Cultures of H526 cells, growing in RPMI with 10% fetal calf serum, were collected by centrifugation, washed twice with PBS, and suspended in cell assay medium. Cells were then distributed into a V-bottom 96-well plate at 7.5×10^4 cells per well in 100 μL cell assay medium.
Compound dilutions were prepared from 10 mM DMSO stocks by dilution in cell assay medium, the final concentration of DMSO in the assay being 0.1%. To compound incubation wells, 50 μL of the test compound was added (compounds are assayed at concentrations between 0.1 nM and […]); to positive and negative control wells, 50 μL cell assay medium containing 0.1% DMSO was added. The cells were then incubated with compound at 37° C. for 3 h. SCF (R&D Systems, catalog #255-SC-010) was then added in order to stimulate the c-Kit receptor and induce its tyrosine phosphorylation. Then, 10 μL of a 1.6 μg/mL solution of SCF in cell assay medium was added to all wells apart from the negative control wells, and the cells were incubated for an additional 15 min at 37° C. Following the addition of ice-cold PBS, the plate was centrifuged at 1000 rpm for 5 min, the medium removed by aspiration, and the cell pellet lysed by the addition of 120 μL ice-cold cell lysis buffer per well. The plate was kept on ice for 20 min and 100 μL of the cell lysates from each well were then transferred to the wells of an ELISA assay plate and incubated at 4° C. for 16 h.
Following incubation of the cell lysates in the ELISA plate, the wells were washed 4 times with 300 μL wash buffer, then 100 μL of the phosphotyrosine detection antibody pY20-HRP was added to each well and the plate incubated at rt for 2 h. The wells were then washed 4 times with 300 μL wash buffer. Then, 50 μL of the chemiluminescent HRP substrate was added to each well for luminometric quantitation of the amount of antiphosphotyrosine-HRP conjugate bound to the plate. […]

[2] = tested on: MO7e human leukemia cells; settings: cited from earlier work
[3] = tested on: MO7e human leukemia cells; settings: cited from earlier work; remark: listed apart in the source

Compound	IC50 [1]	also measured
Cc1csc(C(=O)NC2CCC3(CC2)NC(=O)N(CCC(C)C)C3=O)c1NCc1ccnc2ccccc12 (stereo not drawn) [Compound 5, N-[3-(3-Methylbutyl)-2,4-dioxo-1,3-diazaspiro[4.5]dec-8-yl]-4-methyl-3-[(quinolin-4-ylmethyl)amino]thiophene-2-carboxamide]	> 15 µM	–
O=C(NC1CCC2(CC1)NC(=O)N(Cc1ccccc1)C2=O)c1sccc1NCc1ccnc2ccccc12 (stereo not drawn) [Compound 3, N-(3-Benzyl-2,4-dioxo-1,3-diazaspiro[4.5]dec-8-yl)-3-[(quinolin-4-ylmethyl)amino]thiophene-2-carboxamide]	> 15 µM	–
Cc1ccc(NC(=O)c2ccc(CN3CCN(C)CC3)cc2)cc1Nc1nccc(-c2cccnc2)n1 [Gleevec, imatinib mesylate]	–	GM-CSF stimulated growth [2]: not affected; apoptosis ([3]; Kit ligand-stimulated conditions): induces apoptosis; Kit ligand-stimulated growth ([3]; Kit ligand-stimulated): inhibited
O=C(Nc1ccc2c(c1)C1(CCN(C(=O)OCc3ccccc3)CC1)CN2)c1sccc1NCc1ccnc2ccccc12 [Compound 6]	> 15 µM	–
O=C1NC(=O)C2(CCC(NC(=O)c3sccc3NCc3ccnc4ccccc34)CC2)N1 (stereo not drawn) [Compound 4, N-(2,4-Dioxo-1,3-diazaspiro[4.5]dec-8-yl)-3-[(quinolin-4-ylmethyl)amino]thiophene-2-carboxamide]	> 15 µM	–

Continued, in another order:

IC50 [1]	Compound	also measured
> 15 µM	CN1CCN[C@]2(CC[C@@H](NC(=O)c3sccc3NCc3ccnc4ccccc34)CC2)C1=O [Compound 1, cis-N-(4-Methyl-5-oxo-1,4-diazaspiro[5.5]undec-9-yl)-3-[(quinolin-4-ylmethyl)amino]thiophene-2-carboxamide]	–
> 15 µM	O=C(N[C@H]1CC[C@@]2(CC1)CC(=O)N(Cc1ccccc1)N2)c1sccc1NCc1ccnc2ccccc12 [Compound 2, cis-N-(2-Benzyl-3-oxo-1,2-diazaspiro[4.5]dec-8-yl)-3-[(quinolin-4-ylmethyl)amino]thiophene-2-carboxamide]	–
